Assay results: paper PMC8346002 (International Journal of Molecular Sciences, 2021)
Entries after “also recorded” stand apart in the source; their conditions may differ. Where two headings read alike, the source gives them in different places.

B1: cyclic AMP receptor protein (CRP) from Escherichia coli (natural protein, E. coli K12 MG1655)
chain: MVLGKPQTDPTLEWFLSHCHIHKYPSKSTLIHQGEKAETLYYIVKGSVAVLIKDEEGKEMILSYLNQGDFIGELGLFEEGQERSAWVRAKTACEVAEISYKKFRQLIQVNPDILMRLSAQMARRLQVTSEKVGNLAFLDVTGRIAQTLLNLAKQPDAMTHPDGMQIKITRQEIGQIVGCSRETVGRILKMLEDQNLISAHGKTIVVYGTR
notes: cAMP receptor protein (CRP) of E. coli K12 MG1655; the gene was amplified by PCR from genomic DNA and cloned into pET21a(+) with NdeI and XhoI; About 24 kDa on SDS-PAGE; it is inferred from the vector and the Ni-NTA column; also called CAP; source: E. coli BL21 (DE3), pET21a(+), purified (Ni-NTA, desalting column)

Columns and labels:
[1] = target: T1, histone-like nucleoid structuring protein (H-NS) (Escherichia coli, UniProt P0ACF8); assay: biochemical; assay type: binding
T1 construct: inferred from Ni-NTA/imidazole purification; made in house; host or cells: E. coli BL21 (DE3); over-expressing strain obtained from Dr. Hyon E. Choy, originally from Dr. Bremer's laboratory
Experimental: Figure 3 Determination of the dissociation constant KD for ppGpp on H-NS by fluorescence spectrometry. (a) The emission spectra of H-NS in the presence of ppGpp. While H-NS (10µM) was excited at 280 nm, the emission spectra in the presence of various concentrations of ppGpp were recorded at 25 °C. (b) The difference in fluorescence (ΔF(area)) between 322 and 336 nm against ppGpp concentrations.
(§1) Fluorescence intensities were measured at 25 °C using a F-4500 Fluorescence Spectrophotometer (Hitachi corporation). H-NS and CRP in 50 mM MOPS buffer, pH 7.5 were excited at 280 nm and the emission spectra were recorded from 290 to 400 nm under various ligand concentrations. The dissociation constant, KD, was calculated using the equation, ΔF/ΔFM = (([L] + [P] + KD) − (([L] + [P] + KD)^2 − 4·[L]·[P])^0.5)/2·[P], where ΔF, ΔFM, [P], and [L] represent fluorescence change, the maximal fluorescence change, total protein concentration, and total ligand concentration, respectively. The area below the spectra in the 15 nm ranges was used to calculate ΔF in this study. The corrections for the inner filter effect, introduced by the ligands, was performed using the formula, Fcor = F × 10^(P + ΔA)/2, where F and Fcor denote fluorescence intensity before and after the correction, whereas P and ΔA indicate the initial sample absorption at the excitation wavelength and the change in absorption introduced by ligands, respectively.

[2] = target: T2, cAMP receptor protein (CRP) (Escherichia coli, UniProt P0ACJ8); assay type: binding; details: CRP 2 µM, 25 °C, 50 mM MOPS pH 7.5, excitation 280 nm, ΔF(area) 334-348 nm; read-out: KD for nucleotide ligands on CRP
T2 construct: inferred from pET21a(+) and Ni-NTA/imidazole purification); made in house; host or cells: E. coli BL21 (DE3), pET21a(+)
Experimental: Figure 1 Binding of ppGpp to CRP determined by fluorescence spectroscopy. (a) The fluorescence Spectra of CRP in the presence of ppGpp. Following excitation at 280 nm, the emission spectra of CRP (2 µM) were recorded at 25 °C. (b) The fluorescence change (ΔF(area)) against ppGpp concentrations. Instead of using the fluorescence change at a fixed wavelength, the area below the spectra between 334 and 348 nm was used, and the area decrease (ΔF(area)) upon addition of ppGpp was utilized to calculate the extent of fluorescence quenching.
as §1

[3] = target: the molecule itself; assay: SEC; size exclusion chromatography of isolated CRP, single peak; data not shown
[4] = H-NS 10 µM, 25 °C, 50 mM MOPS pH 7.5, excitation 280 nm, ΔF(area) 322-336 nm, read-out: KD for nucleotide ligands on H-NS

T1 sequence (P0ACF8 whole entry): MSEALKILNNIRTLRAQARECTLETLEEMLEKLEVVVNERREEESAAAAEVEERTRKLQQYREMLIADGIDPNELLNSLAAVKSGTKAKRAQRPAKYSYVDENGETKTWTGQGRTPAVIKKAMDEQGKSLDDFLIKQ

Molecule	Kd [2] [µM]	Kd [1, 4] [µM]	further results
Nc1ncnc2c1ncn2[C@@H]1O[C@H](COP(=O)(O)OP(=O)(O)OP(=O)(O)O)[C@@H](O)[C@H]1O [ATP]	33 ± 4		KD for nucleotide ligands on H-NS ([1]; H-NS 10 µM, 25 °C, 50 mM MOPS pH 7.5, excitation 280 nm, ΔF(area) 322-336 nm): does not show a saturation curve; also recorded: did not show a saturation curve
Nc1nc2c(ncn2[C@@H]2O[C@H](COP(=O)(O)OP(=O)(O)O)[C@@H](O)[C@H]2O)c(=O)[nH]1 [GDP]	62 ± 4	72 ± 6	
Nc1nc2c(ncn2[C@@H]2O[C@H](COP(=O)(O)OP(=O)(O)OP(=O)(O)O)[C@@H](O)[C@H]2O)c(=O)[nH]1 [GTP]	35 ± 3	120 ± 25	
Nc1ncnc2c1ncn2[C@@H]1O[C@@H]2COP(=O)(O)O[C@H]2[C@H]1O [cAMP]			Kd [1]: 270 ± 40 µM
Nc1nc2c(ncn2[C@@H]2O[C@@H]3COP(=O)(O)O[C@H]3[C@H]2O)c(=O)[nH]1 [cGMP]	17 ± 1		
B1			stoichiometry N [3]: 2
